According to patent publication US7754896B2, “Indol-alanine derivatives as selective S1P4-agonists” (Novartis AG, priority 2004, dated 2010):

Biological target: T1, S1P4 (Homo sapiens, UniProt O95977)
T1 construct: expressed in transfected cells
T1 sequence (O95977 1-384): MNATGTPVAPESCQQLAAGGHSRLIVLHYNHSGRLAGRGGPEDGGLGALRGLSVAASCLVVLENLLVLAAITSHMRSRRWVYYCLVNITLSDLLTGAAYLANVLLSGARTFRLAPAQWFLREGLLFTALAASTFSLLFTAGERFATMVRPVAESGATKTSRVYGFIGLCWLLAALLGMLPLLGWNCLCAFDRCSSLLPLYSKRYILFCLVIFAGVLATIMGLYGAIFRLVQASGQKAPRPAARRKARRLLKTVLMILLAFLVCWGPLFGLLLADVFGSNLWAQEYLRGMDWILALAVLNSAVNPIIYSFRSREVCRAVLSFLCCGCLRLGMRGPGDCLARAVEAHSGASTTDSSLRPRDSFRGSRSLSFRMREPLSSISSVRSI
Experiment: Calcium mobilization assay, CHO cells expressing S1P4
Format: cell-based
Method: An expression vector for the human S1P4 gene (HSEDG4; GenBank Accession Number AJ000479) fused to the c-myc peptide tag at the C-terminus is obtained as described in Van Brocklyn et al. 2000, Blood 95(8), 2624. The encoding DNA for the S1P4-myc fusion protein is cloned in the mammalian expression vector pRc/CMV (Invitrogen), which confers G418 resistance for the selection of stable mammalian cells. The DNA sequence of the S1P4 insert is determined on both strands. […] The S1P4-myc cDNA is inserted into the pRc/CMV vector using HindIII/XbaI.
To develop stable cell lines expressing the c-myc tagged S1P4 receptor 5 μg of plasmid pRc/CMV myc-S1P4 is cut using restriction endonuclease PvuI, which cleaves the plasmid once. The linearized plasmid is then precipitated using a final concentration of 0.3M sodium acetate, pH5.0 and 66% ethanol. […] Individual clones that grew after the sort and selection procedure are expanded and one clone is finally selected based on the level of S1P4 mRNA expression determined by TaqMan quantitative PCR analysis.
CHO cells are plated in black Costar plate (96 or 384 well, 50,000 cells or 12,500 cells, respectively) in a MEM with FCS and cultured for 20-24 h at 37° C. in a CO2 incubator. […] After measuring the baseline for 40 sec, the agonist in HBSS is added and the fluorescence is measured at intervals of 2 sec for 3 to 5 min. […]

NC(CNC(=O)c1cc2c(-c3ccccc3Cc3ccccc3)cccc2[nH]1)C(=O)O (stereo not shown) [Example 2]
EC50: 0.01 µM
